From US9725449B2, “Tricyclic compounds as anticancer agents” (BRISTOL-MYERS SQUIBB COMPANY, priority 2015, dated 2017) come the findings set out here.

This test concerns the target BRD4 (Homo sapiens, UniProt O60885). Put plainly: Time resolved fluorescence resonance energy transfer (TR-FRET) binding assay, bromodomain BRD4. As to conditions: one of the FRET assays described; read-out: FRET BRD4 IC50. A general note: In TR-FRET formats the signal depends on donor and acceptor labels being close together.

Broadly, the IC50 is the concentration that gives 50% inhibition. Turning to `COc1ncc(S(C)(=O)=O)c2c1c1ncc(-c3c(C)nnn3C)cc1n2[C@H](c1ccc(F)cc1)C1CCOCC1` [Example 52, 5-(Dimethyl-1H-1,2,3-triazol-5-yl)-8-[(S)-(4-fluorophenyl)(oxan-4-yl)methyl]-10-methanesulfonyl-13-methoxy-3,8,12-triazatricyclo[7.4.0.0^2,^7]trideca-1(13),2(7),3,5,9,11-hexaene], the half-maximal inhibitory concentration (IC50) is below 1 nM.
For `[2H]C([2H])([2H])c1nnn(C)c1-c1cnc2c3c(NCC(F)(F)F)nccc3n([C@H](c3ccccc3)C3CCOCC3)c2c1` [Example 134, 5-[4-(^2H3)Methyl-1-methyl-1H-1,2,3-triazol-5-yl]-8-[(S)-oxan-4-yl(phenyl)methyl]-N-(2,2,2-trifluoroethyl)-3,8,12-triazatricyclo[7.4.0.0^2,^7]trideca-1(13),2(7),3,5,9,11-hexaen-13-amine] the value was below 1 nM.
Regarding `Cc1nnn(C)c1-c1cnc2c3cnc(N4CCN(C5CC5)CC4)nc3n([C@H](c3ccccc3)C3CCOCC3)c2c1` [Example 157, 11-(4-Cyclopropylpiperazin-1-yl)-5-(dimethyl-1H-1,2,3-triazol-5-yl)-8-[(S)-oxan-4-yl(phenyl)methyl]-3,8,10,12-tetraazatricyclo[7.4.0.0^2,^7]trideca-1(9),2(7),3,5,10,12-hexaene], the IC50 is below 10 nM.
`Cc1nnn(C)c1-c1cnc2c3cnc(Cl)cc3n(C(c3ncccc3F)C3CCOCC3)c2c1` (single isomer, unassigned) [Example 318]: the half-inhibitory concentration (IC50) was below 10 nM.
Regarding `COc1nnn(C)c1-c1cnc2c3ccc(N4CCS(=O)(=O)CC4)nc3n([C@H](c3ccccc3F)C3CCOCC3)c2c1` [Example 256, 4-{8-[(S)-(2-Fluorophenyl)(oxan-4-yl)methyl]-5-(4-methoxy-1-methyl-1H-1,2,3-triazol-5-yl)-3,8,10-triazatricyclo[7.4.0.0^2,^7]trideca-1(13),2(7),3,5,9,11-hexaen-11-yl}-1λ^6,4-thiomorpholine-1,1-dione], the 50% inhibitory concentration (IC50) was below 10 nM.
`[2H]C([2H])([2H])c1nnn(C)c1-c1cnc2c3cc(C(C)(C)O)cnc3n([C@H](c3ccccc3)C3CCOCC3)c2c1` [Example 349, 2-{5-[4-(^2H3)Methyl-1-methyl-1H-1,2,3-triazol-5-yl]-8-[(S)-oxan-4-yl(phenyl)methyl]-3,8,10-triazatricyclo[7.4.0.0^2,^7]trideca-1(13),2(7),3,5,9,11-hexaen-12-yl}propan-2-ol]: the 50% inhibitory concentration (IC50) is below 1 nM.
In the case of `[2H]C([2H])([2H])c1nnn(C)c1-c1cc2c(cn1)c1ncc(C(C)(C)O)cc1n2[C@H](c1ccccc1)C1CCOCC1` [Example 364, 2-{11-[4-(^2H3)Methyl-1-methyl-1H-1,2,3-triazol-5-yl]-8-[(S)-(oxan-4-yl)(phenyl)methyl]-3,8,12-triazatricyclo[7.4.0.0^2,^7]trideca-1(9),2,4,6,10,12-hexaen-5-yl}propan-2-ol], the IC50 was below 10 nM.
For `[2H]C([2H])([2H])c1nnn(C)c1-c1cnc2c3c(OC)nc(N4CCC(F)(F)CC4)cc3n([C@H](c3ccccc3)C3CCOCC3)c2c1` [Example 343, 11-(4,4-Difluoropiperidin-1-yl)-13-methoxy-5-[4-(^2H3)methyl-1-methyl-1H-1,2,3-triazol-5-yl]-8-[(S)-oxan-4-yl(phenyl)methyl]-3,8,12-triazatricyclo[7.4.0.0^2,^7]trideca-1(13),2(7),3,5,9,11-hexaene], the IC50 was below 1 nM.
The figure for `Cc1noc(C)c1-c1cnc2c3cnc(Cl)cc3n(C(c3ncccc3F)C3CCOCC3)c2c1` (stereo not shown) [Example 324, 11-Chloro-5-(dimethyl-1,2-oxazol-4-yl)-8-[(3-fluoropyridin-2-yl)(oxan-4-yl)methyl]-3,8,12-triazatricyclo[7.4.0.0^2,^7]trideca-1(9),2(7),3,5,10,12-hexaene] is below 1500 nM; for `[2H]C([2H])([2H])c1nnn(C)c1-c1cnc2c3cnc(C(C)(C)O)cc3n(C(CCC)c3ncccc3F)c2c1` (stereo not shown) [Example 360, 2-{8-[1-(3-Fluoropyridin-2-yl)butyl]-5-[4-(^2H3)methyl-1-methyl-1H-1,2,3-triazol-5-yl]-3,8,12-triazatricyclo[7.4.0.0^2,^7]trideca-1(13),2(7),3,5,9,11-hexaen-11-yl}propan-2-ol] it is below 10 nM.
The figure for `[2H]C([2H])([2H])c1nnn(C)c1-c1cnc2c3c(OCC)ncc(S(C)(=O)=O)c3n(C(c3ncccc3F)C3CCOCC3)c2c1` (stereo not shown) [Example 68, 13-Ethoxy-8-[(3-fluoropyridin-2-yl)(oxan-4-yl)methyl]-10-methanesulfonyl-5-[4-(^2H3)methyl-1-methyl-1H-1,2,3-triazol-5-yl]-3,8,12-triazatricyclo[7.4.0.0^2,^7]trideca-1(13),2(7),3,5,9,11-hexaene] is below 1 nM; for `COc1nnn(C)c1-c1cnc2c3cnc(N4C[C@@H](C)S(=O)(=O)[C@H](C)C4)nc3n([C@H](c3ccccc3)C3CCOCC3)c2c1` [Example 158, (2R,6R)-4-[5-(4-Methoxy-1-methyl-1H-1,2,3-triazol-5-yl)-8-[(S)-oxan-4-yl(phenyl)methyl]-3,8,10,12-tetraazatricyclo[7.4.0.0^2,^7]trideca-1(9),2(7),3,5,10,12-hexaen-11-yl]-2,6-dimethyl-1λ^6,4-thiomorpholine-1,1-dione] it is below 10 nM; for `[2H]C([2H])([2H])c1nnn(C)c1-c1cnc2c3cnc(OCC4CC4)cc3n([C@H](c3ccccc3)C3CCOCC3)c2c1` [Example 288, 11-(Cyclopropylmethoxy)-5-[4-(^2H3)methyl-1-methyl-1H-1,2,3-triazol-5-yl]-8-[(S)-oxan-4-yl(phenyl)methyl]-3,8,12-triazatricyclo[7.4.0.0^2,^7]trideca-1(9),2(7),3,5,10,12-hexaene] it is below 1 nM.
